Activity calls are given as the source filed them. The calls are words filed in the database; no cut-off is given here.
How the values were obtained:
[1] = tested on: BaF3; experiment: Inhibition of HER2-A775-G776 ins YVMA mutant in mouse BaF3 cells assessed as reduction in HER2 phosphorylation at less than 1 nM incubated for 24 hrs by Western blot analysis; assay type: cell-based
[2] = target: Receptor tyrosine-protein kinase erbB-2 (Homo sapiens, UniProt P04626); experiment: Inhibition of HER2 (unknown origin)
[3] = tested on: BaF3; experiment: Antitumor activity against mouse BaF3 cells implanted in BALB/c mouse harboring EGFR D770-N771 ins NPG mutant assessed as tumor growth inhibition at 20 mg/kg, po administered once daily for 13 to 14 days; assay type: functional; settings: time 13-14 day, read-out: TGI
[4] = tested on: BaF3; experiment: In vivo inhibition of HER2-A775-G776 ins YVMA mutant in BALB/c mouse implanted with mouse BaF3 cells assessed as reduction in HER2 phosphorylation at 10 to 20 mg/kg, po administered once daily for 13 to 14 days by Western blot analysis; assay type: functional, organism-based; settings: dose 10-20 mg/kg, time 13-14 day
[5] = target: Receptor tyrosine-protein kinase erbB-4 (Homo sapiens) (UniProt Q15303); settings: dose 500.0 nM
Description: Inhibition of HER4 (unknown origin) at 500 nM relative to control

[6] = Cmax in Sprague-Dawley rat at 10 mg/kg, po measured upto 8 hrs by LC-MS/MS analysis; assay type: ADME, organism-based; parameters: dose 10 mg/kg, time < 8 hrs, route po; settings: in vivo
[7] = Tmax in Sprague-Dawley rat at 10 mg/kg, iv measured upto 8 hrs by LC-MS/MS analysis; assay type: ADME, organism-based; settings: in vivo
[8] = Toxicity in BALB/c mouse harboring EGFR D770-N771 ins NPG mutant implanted with mouse BaF3 cells assessed as change in body weight at 10 to 20 mg/kg, po administered once daily for 13 to 14 days; assay type: organism-based; settings: in vivo, dose lower 10 mg/kg, time lower 13 day, dose upper 20 mg/kg, time upper 14 day
[9] = Mean residence time in Sprague-Dawley rat at 10 mg/kg, po measured upto 8 hrs by LC-MS/MS analysis; assay type: ADME, organism-based; settings: in vivo
[10] = tested on: BaF3; experiment: Antitumor activity against mouse BaF3 cells implanted in BALB/c mouse harboring EGFR D770-N771 ins NPG mutant assessed as tumor growth inhibition at 10 mg/kg, po administered once daily for 13 to 14 days; assay type: functional; settings: time 13-14 day, read-out: TGI
[11] = tested on: BaF3; experiment: In vivo inhibition of EGFR D770-N771 ins NPG mutant in BALB/c mouse implanted with mouse BaF3 cells assessed as reduction in EGFR phosphorylation at 10 to 20 mg/kg, po administered once daily for 13 to 14 days by Western blot analysis; assay type: functional, organism-based; settings: dose 10-20 mg/kg, time 13-14 day
[12] = tested on: BaF3; experiment: Antiproliferative activity against mouse BAF3 cells harboring HER2-P780-Y781 ins GSP mutant after 72 hrs by celltiter-Glo luminescence assay; assay type: functional, cell-based; settings: BaF3, 72 h
[13] = Oral bioavailability in Sprague-Dawley rat at 10 mg/kg measured upto 8 hrs by LC-MS/MS analysis; assay type: ADME, organism-based; settings: in vivo
[14] = Toxicity in BALB/c mouse harboring HER2-A775-G776 ins YVMA mutant implanted with mouse BaF3 cells assessed as change in body weight at 10 to 20 mg/kg, po administered once daily for 13 to 14 days; assay type: organism-based; settings: in vivo, dose lower 10 mg/kg, time lower 13 day, dose upper 20 mg/kg, time upper 14 day
[15] = Cmax in Sprague-Dawley rat at 10 mg/kg, iv measured upto 8 hrs by LC-MS/MS analysis; assay type: ADME, organism-based; parameters: dose 10 mg/kg, time < 8 hrs, route iv; settings: in vivo
[16] = target: Voltage-gated inwardly rectifying potassium channel KCNH2 (Homo sapiens, UniProt Q12809); experiment: Binding affinity to human ERG; assay type: toxicity
[17] = tested on: BaF3; experiment: Antitumor activity against mouse BaF3 cells implanted in BALB/c mouse harboring HER2-A775-G776 ins YVMA mutant assessed as tumor growth inhibition at 10 mg/kg, po administered once daily for 13 to 14 days; assay type: functional; settings: time 13-14 day, read-out: TGI
[18] = tested on: BaF3; experiment: Antiproliferative activity against mouse BAF3 cells harboring HER2-A775-G776 ins YVMA mutant after 72 hrs by celltiter-Glo luminescence assay; assay type: functional, cell-based; settings: BaF3, 72 h
[19] = target: T1, Tyrosine-protein kinase TXK (Homo sapiens) (UniProt P42681); experiment: Inhibition of TXK (unknown origin) at 500 nM relative to control
T1 sequence (whole entry): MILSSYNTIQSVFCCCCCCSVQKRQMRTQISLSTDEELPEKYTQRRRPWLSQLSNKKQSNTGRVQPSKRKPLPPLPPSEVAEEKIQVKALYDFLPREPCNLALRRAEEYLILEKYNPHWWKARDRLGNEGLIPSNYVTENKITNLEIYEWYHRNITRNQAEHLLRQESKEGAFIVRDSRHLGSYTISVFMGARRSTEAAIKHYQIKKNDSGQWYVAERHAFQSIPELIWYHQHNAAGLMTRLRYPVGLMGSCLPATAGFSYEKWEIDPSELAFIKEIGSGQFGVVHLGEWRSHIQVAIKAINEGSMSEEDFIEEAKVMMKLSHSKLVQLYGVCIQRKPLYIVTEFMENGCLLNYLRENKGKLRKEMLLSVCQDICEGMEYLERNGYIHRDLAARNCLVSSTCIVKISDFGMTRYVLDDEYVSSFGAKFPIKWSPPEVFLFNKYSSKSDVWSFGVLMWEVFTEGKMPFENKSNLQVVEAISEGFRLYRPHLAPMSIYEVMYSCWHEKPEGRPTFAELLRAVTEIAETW

[20] = Tmax in Sprague-Dawley rat at 10 mg/kg, po measured upto 8 hrs by LC-MS/MS analysis; assay type: ADME, organism-based; settings: in vivo
[21] = Half life in Sprague-Dawley rat at 10 mg/kg, iv measured upto 8 hrs by LC-MS/MS analysis; assay type: ADME, organism-based; settings: in vivo
[22] = Inhibition of EGFR L858R/T790M double mutant (unknown origin); parameters: species or system Homo sapiens
[23] = target: Protein-tyrosine kinase 6 (Homo sapiens) (UniProt Q13882); experiment: Inhibition of BRK (unknown origin) at 500 nM relative to control
[24] = tested on: BaF3; experiment: Antitumor activity against mouse BaF3 cells implanted in BALB/c mouse harboring HER2-A775-G776 ins YVMA mutant assessed as tumor growth inhibition at 20 mg/kg, po administered once daily for 13 to 14 days; assay type: functional; settings: time 13-14 day, read-out: TGI
[25] = Mean residence time in Sprague-Dawley rat at 10 mg/kg, iv measured upto 8 hrs by LC-MS/MS analysis; assay type: ADME, organism-based; settings: in vivo
[26] = Inhibition of HER2-A775-G776 ins YVMA mutant (unknown origin); parameters: species or system Homo sapiens
[27] = tested on: BaF3; experiment: Inhibition of EGFR D770-N771 ins NPG mutant in mouse BaF3 cells assessed as reduction in EGFR phosphorylation incubated for 24 hrs by Western blot analysis; assay type: cell-based; settings: dose 1-100 nM

Sequence of Receptor tyrosine-protein kinase erbB-4 (Homo sapiens) (Q15303 whole entry): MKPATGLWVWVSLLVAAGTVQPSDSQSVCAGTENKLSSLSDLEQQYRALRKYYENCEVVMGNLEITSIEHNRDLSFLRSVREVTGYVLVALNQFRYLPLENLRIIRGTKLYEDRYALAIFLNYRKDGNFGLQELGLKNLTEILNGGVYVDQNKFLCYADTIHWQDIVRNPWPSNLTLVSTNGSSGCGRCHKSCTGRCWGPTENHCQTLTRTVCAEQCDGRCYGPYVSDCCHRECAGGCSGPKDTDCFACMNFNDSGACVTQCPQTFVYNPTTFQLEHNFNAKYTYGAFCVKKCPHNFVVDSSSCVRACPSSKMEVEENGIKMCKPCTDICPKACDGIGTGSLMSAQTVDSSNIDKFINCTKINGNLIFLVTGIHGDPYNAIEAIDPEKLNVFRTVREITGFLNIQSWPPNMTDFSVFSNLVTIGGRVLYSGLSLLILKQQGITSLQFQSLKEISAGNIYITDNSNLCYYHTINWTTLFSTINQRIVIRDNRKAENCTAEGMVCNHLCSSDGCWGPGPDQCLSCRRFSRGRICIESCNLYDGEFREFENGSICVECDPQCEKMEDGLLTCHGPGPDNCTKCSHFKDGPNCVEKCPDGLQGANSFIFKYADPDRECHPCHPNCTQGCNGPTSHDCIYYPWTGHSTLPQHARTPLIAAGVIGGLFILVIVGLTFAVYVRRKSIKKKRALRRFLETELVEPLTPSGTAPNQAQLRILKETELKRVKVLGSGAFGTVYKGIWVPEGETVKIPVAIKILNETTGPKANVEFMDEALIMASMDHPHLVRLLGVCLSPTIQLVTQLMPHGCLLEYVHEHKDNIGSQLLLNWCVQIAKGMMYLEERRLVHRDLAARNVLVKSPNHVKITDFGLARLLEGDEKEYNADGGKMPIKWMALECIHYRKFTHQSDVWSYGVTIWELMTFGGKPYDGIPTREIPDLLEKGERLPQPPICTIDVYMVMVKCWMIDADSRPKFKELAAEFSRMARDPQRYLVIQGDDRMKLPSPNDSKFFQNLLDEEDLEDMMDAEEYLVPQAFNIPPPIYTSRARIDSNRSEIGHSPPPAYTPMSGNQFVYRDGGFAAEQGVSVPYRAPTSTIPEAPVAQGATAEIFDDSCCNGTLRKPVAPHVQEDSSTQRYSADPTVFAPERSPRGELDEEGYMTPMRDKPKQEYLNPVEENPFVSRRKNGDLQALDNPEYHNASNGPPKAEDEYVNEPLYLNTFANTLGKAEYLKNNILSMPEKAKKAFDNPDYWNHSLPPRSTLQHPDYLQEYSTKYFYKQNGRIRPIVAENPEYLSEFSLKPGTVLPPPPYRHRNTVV
Sequence of Receptor tyrosine-protein kinase erbB-2 (P04626 whole entry): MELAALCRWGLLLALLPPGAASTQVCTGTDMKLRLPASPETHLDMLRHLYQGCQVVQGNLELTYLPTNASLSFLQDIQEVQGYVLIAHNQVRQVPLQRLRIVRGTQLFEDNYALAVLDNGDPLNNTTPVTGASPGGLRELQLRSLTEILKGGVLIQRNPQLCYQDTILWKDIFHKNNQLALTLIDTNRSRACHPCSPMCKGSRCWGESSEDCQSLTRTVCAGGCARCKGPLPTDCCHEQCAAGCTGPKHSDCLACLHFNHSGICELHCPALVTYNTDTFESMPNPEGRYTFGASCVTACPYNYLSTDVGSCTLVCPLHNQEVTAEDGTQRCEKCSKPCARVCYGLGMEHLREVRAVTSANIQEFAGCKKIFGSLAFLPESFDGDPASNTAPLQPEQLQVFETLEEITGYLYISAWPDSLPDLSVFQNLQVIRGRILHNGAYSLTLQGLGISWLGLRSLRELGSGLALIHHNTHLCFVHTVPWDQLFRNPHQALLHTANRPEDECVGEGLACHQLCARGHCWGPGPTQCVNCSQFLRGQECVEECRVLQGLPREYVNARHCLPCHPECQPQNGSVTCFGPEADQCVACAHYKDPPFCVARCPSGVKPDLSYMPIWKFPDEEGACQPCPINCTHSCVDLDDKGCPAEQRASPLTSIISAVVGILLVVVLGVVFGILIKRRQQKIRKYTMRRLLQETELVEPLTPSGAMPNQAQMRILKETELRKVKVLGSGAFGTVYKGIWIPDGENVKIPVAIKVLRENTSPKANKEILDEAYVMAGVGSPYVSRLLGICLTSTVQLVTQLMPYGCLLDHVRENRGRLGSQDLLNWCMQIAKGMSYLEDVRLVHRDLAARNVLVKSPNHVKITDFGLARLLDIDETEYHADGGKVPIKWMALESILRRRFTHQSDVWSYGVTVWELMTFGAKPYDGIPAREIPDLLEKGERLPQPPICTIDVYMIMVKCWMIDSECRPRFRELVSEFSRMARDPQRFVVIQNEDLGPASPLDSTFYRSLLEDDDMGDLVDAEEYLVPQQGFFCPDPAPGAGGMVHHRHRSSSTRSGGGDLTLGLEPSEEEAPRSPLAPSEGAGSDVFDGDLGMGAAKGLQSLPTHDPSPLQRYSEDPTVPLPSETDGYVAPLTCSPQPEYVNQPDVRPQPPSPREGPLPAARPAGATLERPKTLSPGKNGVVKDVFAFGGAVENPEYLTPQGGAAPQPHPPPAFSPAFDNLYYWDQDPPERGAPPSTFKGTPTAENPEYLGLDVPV
Sequence of Voltage-gated inwardly rectifying potassium channel KCNH2 (Q12809 whole entry): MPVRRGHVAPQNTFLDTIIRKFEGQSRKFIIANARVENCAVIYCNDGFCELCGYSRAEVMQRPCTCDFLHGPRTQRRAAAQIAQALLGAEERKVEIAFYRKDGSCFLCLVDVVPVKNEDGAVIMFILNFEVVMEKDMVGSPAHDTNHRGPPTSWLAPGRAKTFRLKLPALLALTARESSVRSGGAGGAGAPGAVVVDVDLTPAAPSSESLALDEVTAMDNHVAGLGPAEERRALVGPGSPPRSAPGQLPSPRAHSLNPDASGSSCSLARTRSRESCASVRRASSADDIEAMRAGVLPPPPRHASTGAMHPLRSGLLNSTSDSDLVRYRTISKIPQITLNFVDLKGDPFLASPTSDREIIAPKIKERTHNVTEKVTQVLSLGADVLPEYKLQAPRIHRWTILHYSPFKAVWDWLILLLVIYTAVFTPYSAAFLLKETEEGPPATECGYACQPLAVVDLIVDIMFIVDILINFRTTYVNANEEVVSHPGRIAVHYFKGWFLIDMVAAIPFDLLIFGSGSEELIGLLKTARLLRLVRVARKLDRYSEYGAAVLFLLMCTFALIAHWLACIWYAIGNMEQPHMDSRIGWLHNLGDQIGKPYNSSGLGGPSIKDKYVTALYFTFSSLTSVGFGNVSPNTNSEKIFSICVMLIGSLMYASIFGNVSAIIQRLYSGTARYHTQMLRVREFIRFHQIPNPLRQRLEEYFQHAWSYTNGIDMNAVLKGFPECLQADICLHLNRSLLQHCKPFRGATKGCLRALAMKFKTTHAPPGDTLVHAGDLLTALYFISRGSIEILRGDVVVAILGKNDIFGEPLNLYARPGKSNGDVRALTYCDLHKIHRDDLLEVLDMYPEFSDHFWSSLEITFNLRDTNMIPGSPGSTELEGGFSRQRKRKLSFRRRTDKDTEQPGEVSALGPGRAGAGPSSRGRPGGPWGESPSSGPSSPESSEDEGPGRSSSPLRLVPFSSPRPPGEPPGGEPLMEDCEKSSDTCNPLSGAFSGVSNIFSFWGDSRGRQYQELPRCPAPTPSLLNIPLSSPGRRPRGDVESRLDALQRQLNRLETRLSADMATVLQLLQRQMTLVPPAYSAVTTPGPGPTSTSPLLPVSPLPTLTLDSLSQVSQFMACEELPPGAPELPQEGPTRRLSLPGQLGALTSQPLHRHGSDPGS
Sequence of Protein-tyrosine kinase 6 (Homo sapiens) (Q13882 whole entry, looked up): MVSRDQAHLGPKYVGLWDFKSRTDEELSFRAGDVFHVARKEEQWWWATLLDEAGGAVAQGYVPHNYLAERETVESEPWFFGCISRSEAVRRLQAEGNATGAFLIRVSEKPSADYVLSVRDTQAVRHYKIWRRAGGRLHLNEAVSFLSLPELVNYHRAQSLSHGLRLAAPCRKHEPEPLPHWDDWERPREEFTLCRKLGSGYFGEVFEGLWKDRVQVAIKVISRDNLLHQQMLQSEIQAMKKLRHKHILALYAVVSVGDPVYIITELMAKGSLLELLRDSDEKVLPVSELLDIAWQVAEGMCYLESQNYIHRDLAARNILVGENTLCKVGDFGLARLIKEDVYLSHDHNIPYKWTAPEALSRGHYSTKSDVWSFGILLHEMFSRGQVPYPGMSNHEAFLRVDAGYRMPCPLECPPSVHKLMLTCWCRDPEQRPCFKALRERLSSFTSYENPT

IC50 [2]: 1.42 nM
inhibition [5]: 100%
Cmax [6]: 1690 ng/mL
Tmax [7]: 4.98 min
MRT [9]: 3.58 h
IC50 [12]: 0.62 nM
bioavailability [13]: 68%
Cmax [15]: 8270 ng/mL
IC50 [18]: 0.95 nM
inhibition [19]: > 20%
Tmax [20]: 1.33 h
half-life [21]: 0.89 h
IC50 [22]: 1.07 nM
inhibition [23]: > 20%
MRT [25]: 1.89 h
IC50 [26]: 0.92 nM
SMILES: C=CC(=O)N1CCC(Oc2cc3c(Nc4cccc(Cl)c4F)ncnc3cc2O[C@H]2CCOC2)CC1
inhibition [1]: Active
inhibition in vivo at 20 mg/kg [3]: 83%
inhibition [4]: Active
Activity [8]: Non-Toxic
inhibition in vivo at 10 mg/kg [10]: 67%
inhibition [11]: Active
Activity [14]: Non-Toxic
IC50 [16]: > 15000 nM
inhibition in vivo at 10 mg/kg [17]: 75%
inhibition in vivo at 20 mg/kg [24]: 90%
inhibition [27]: Dose-Dependent Effect

Source: ChEMBL document CHEMBL5252585, “Structure optimization and discovery of novel compound for the treatment of insertion mutations within exon 20 of EGFR and HER2” (Bioorg Med Chem, 2023)
